# Source: patent US7858585B2, “Hydrogels and uses thereof” (University of Delaware, priority 2005, dated 2010)
# Experiments:
# [1] = Oscillatory rheology of 0.5 wt % MAX1 and HPL8 hydrogels in DMEM, pH 7.4, 37° C.; assay type: physicochemical
# Protocol: (§1) To a vial containing 1 mg of peptide, 100 μL of 25 mM HEPES, pH 7.4 was added resulting in a soluble 1 wt % peptide solution. To this solution, an equal volume of DMEM supplemented with 25 mM HEPES, pH 7.4 was added to initiate self-assembly, resulting in a 0.5 wt % hydrogel. All hydrogels were prepared by this method unless otherwise stated.
# Oscillatory rheology experiments were performed on a TA Instruments rheometer (AR 2000) with a 25 mm diameter stainless steel parallel plate geometry with a gap height of 0.5 mm. All measurements were acquired at 37° C. For dynamic time sweeps (DTS) the hydrogels were prepared as stated above and quickly transferred to the rheometer where the storage modulus (G′) was monitored as a function of time, frequency=6 rad. sec-1 and strain=0.2%. For the shear thinning experiments, a DTS was preformed for 10 min at which time 1000% stain was applied for 30 seconds to shear thin the material. After which time, the strain was decreased to 0.2% and G′ monitored as a function of time. Dynamic frequency, dynamic strain and dynamic time sweep measurements measuring both G′ and the loss modulus (G″) are provided in FIG. 36.
# [2] = CD kinetics of β-sheet formation ([θ]216) after addition of DMEM; assay type: physicochemical; details: 0.5 wt %, pH 7.4, 37° C.
# Protocol: as §1
# CD kinetic spectra were collected on a Jasco J-810 spectropolarimeter employing 0.1 mm quartz water-jacketed cell. Peptide samples were prepared as stated above, transferred to the cell at 37° C. The ellipiticity in millidegrees were monitored at 216 nm as a function of time. Following the kinetic measurement, a wavelength scan was recorded at 37° C. using a 2 nm step size. The concentrations of MAX1 and HPL8 stock solutions were determined by absorbance (λ220=15750 cm-1.M-1) after dilution with water. Mean residue ellipticity [θ]=(θobs/10.1.c)/r, where θobs is the measured ellipticity in millidegrees, l is the length of the cell (cm), c is the concentration (M) and r is the number of residues.
# [3] = system: C3H10t1/2 mesenchymal stem cells; assay: Encapsulation of mesenchymal stem cells in hydrogel, LSCM imaging of cell distribution; assay type: cell-based
# Source text: For example, FIG. 29 contains a Laser Scanning Confocal Microscopy (LSCM) cross-sectional view of C3H10t1/2 cells encapsulated within a 0.5 wt % MAX1 hydrogel. In this micrograph, cells contained within the interior of the gel are visualized from the side of the gel (along the y-axis, depth of field is 920 μm); the top and bottom of the image is the top and bottom of the gel, respectively. Cells are encapsulated by first dissolving 1.0 wt % MAX1 in buffer at pH 7.4. To this solution, an equal volume (50 μL) of DMEM cell culture medium containing 250,000 cells is added. The salt within the DMEM electrostatically screens the lysine side chain charges resulting in peptide folding and consequent self-assembly. This simple one-to-one addition of solutions affords gels impregnated with cells. However, it is clear in FIG. 29 that the hydrogelation kinetics of MAX1 are not fast enough to entrap the cells homogeneously since a majority of the cells sediment to the bottom of the gel sample well.
# C3H10t1/2 cell growth conditions are 90% DMEM supplemented with 25 mM HEPES, 10% FBS, 5 mM L-glutamine, and 50 μg/mL Gentamicin at 37° C., 5% CO2. […] Viability of encapsulated cells in 0.5 wt % hydrogels (before and after shear thinning) was assessed via a Live/Dead assay at 3 hr after encapsulation. […]
# [4] = system: C3H10t1/2 cells; assay: Live/Dead assay of encapsulated cells after shear thin delivery; assay type: cell-based; details: 0.5 wt % hydrogel, three hours after delivery
# Protocol: Lastly, the effect of shear thin delivery on cell viability was assessed by performing a Live-Dead assay on cells that had been encapsulated into a 0.5 wt % HPL8 hydrogel and subsequently shear thin delivered to a LSCM well FIG. 33c. In this micrograph, cells contained within the interior of the gel are visualized by viewing from the top of the gel (along the z-axis, depth of field is 90 μm.). Three hours after the gel/cell construct had been shear-thin delivered, calcien AM and ethidium homodimer were added to the top of the gel, which freely diffuse through the gel network, staining live cells green and dead cells red, respectively. […] In fact, the limited degree of cell death observed in FIG. 33c is nearly identical to that of the control experiment where cells were encapsulated in HPL8 hydrogel but not shear thin delivered (FIG. 35).
# C3H10t1/2 cell growth conditions are 90% DMEM supplemented with 25 mM HEPES, 10% FBS, 5 mM L-glutamine, and 50 μg/mL Gentamicin at 37° C., 5% CO2. For confocal micrographs of hydrogels impregnated with pre-labeled cells, a suspension of 1.5 e6 cells/mL were incubated in a solution of 5 μM cell tracker green in DMEM for 45 min. […] Viability of encapsulated cells in 0.5 wt % hydrogels (before and after shear thinning) was assessed via a Live/Dead assay at 3 hr after encapsulation. […]
substance,measurement,setting,value
VKVKVKVKV^DPPTKVEVKVKV-NH2 [HPL8],G′ within the first 40 seconds,"[1]; pH 7.4, 37° C.",> 100 Pa
same,G′ at five minutes,[1]; phase I initial gelation,450 Pa
same,G′ within a minute,[1]; phase I initial gelation,> 100 Pa
same,time to completely fold and self-assemble affording gel,[2],under a minute
same,distribution of cells encapsulated in gel,"[3]; 0.5 wt % gel, 250K cells in DMEM, pH 7.4, 37° C.",homogeneous distribution of cells
same,distribution of cells after shear thinning via syringe,[3]; 0.5 wt % gel/cell construct formed in a syringe,still retain the homogeneous cell distribution
same,cell viability after shear thin delivery,[4],majority of the cells remain viable
